Measurements reported in ChEMBL document CHEMBL4622855, “Secondary metabolites from Isodon ternifolius (D. Don) Kudo and their anticancer activity as DNA topoisomerase IB and Tyrosyl-DNA phosphodiesterase 1 inhibitors” (Bioorg Med Chem, 2020).
The source made the active and inactive calls. No cut-off for these calls is given here.

How the values were obtained:
[1] = target: T1, DNA topoisomerase I (Bos taurus) (UniProt F1MN93); assay: Inhibition of calf thymus Top1 assessed as reduction in supercoiled pBR322 DNA relaxation at 100 uM measured after 30 mins by agarose gel electrophoresis relative to camptothecin
T1 sequence (whole entry): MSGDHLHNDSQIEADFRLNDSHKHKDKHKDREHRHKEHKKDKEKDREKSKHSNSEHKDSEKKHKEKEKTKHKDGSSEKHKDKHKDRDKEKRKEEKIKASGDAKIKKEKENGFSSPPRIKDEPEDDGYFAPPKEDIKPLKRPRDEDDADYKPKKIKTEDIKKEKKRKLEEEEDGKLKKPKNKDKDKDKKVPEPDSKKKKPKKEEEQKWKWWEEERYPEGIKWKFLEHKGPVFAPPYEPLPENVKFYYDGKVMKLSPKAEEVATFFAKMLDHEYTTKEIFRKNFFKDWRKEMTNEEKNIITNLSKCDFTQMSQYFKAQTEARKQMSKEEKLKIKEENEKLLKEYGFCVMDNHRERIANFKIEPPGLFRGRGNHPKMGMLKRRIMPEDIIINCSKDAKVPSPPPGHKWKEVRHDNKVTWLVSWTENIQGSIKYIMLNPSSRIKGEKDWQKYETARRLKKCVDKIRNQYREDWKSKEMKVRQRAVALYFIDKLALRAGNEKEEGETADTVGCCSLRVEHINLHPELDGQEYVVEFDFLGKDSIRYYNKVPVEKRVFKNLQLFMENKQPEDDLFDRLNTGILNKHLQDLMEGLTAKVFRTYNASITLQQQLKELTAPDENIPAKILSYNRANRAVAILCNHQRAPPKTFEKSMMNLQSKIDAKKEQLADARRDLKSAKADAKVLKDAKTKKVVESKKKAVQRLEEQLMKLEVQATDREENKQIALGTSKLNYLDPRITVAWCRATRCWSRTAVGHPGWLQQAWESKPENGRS

[2] = target: Tyrosyl-DNA phosphodiesterase 1 (Homo sapiens, UniProt Q9NUW8); assay: Inhibition of TDP1 (unknown origin) expressed in Escherichia coli BL21 (DE3) using 5'-FAM-AGGATCTAAAAGACTT-BHQ-3' as substrate preincubated for 30 mins followed by substrate addition by fluorescence assay
MCF7 [3] = assay: Cytotoxicity against human MCF7 cells assessed as reduction in cell viability after 72 hrs by MTT assay; format: functional; settings: MCF7, 72 h
A549 = assay: Cytotoxicity against human A549 cells assessed as growth inhibition after 72 hrs by MTT assay; format: functional; settings: A549, 72 h
HCT-116 = assay: Cytotoxicity against human HCT116 cells assessed as growth inhibition after 72 hrs by MTT assay; format: functional; settings: HCT-116, 72 h
[4] = target: T1, DNA topoisomerase I (Bos taurus); assay: Inhibition of calf thymus Top1-mediated supercoiled pBR322 DNA cleavage assessed as nicked DNA content at 25 uM measured after 30 mins by ethidium bromide staining agarose gel electrophoresis; parameters: scale not given: the % may be the effect or the level left
[5] = target: T1, DNA topoisomerase I (Bos taurus); assay: Inhibition of calf thymus Top1-mediated supercoiled pBR322 DNA cleavage assessed as nicked DNA content at 50 uM measured after 30 mins by ethidium bromide staining agarose gel electrophoresis; parameters: scale not given: the % may be the effect or the level left
[6] = target: T1, DNA topoisomerase I (Bos taurus); assay: Inhibition of calf thymus Top1 assessed as reduction in supercoiled pBR322 DNA relaxation measured after 30 mins by agarose gel electrophoresis
[7] = target: T1, DNA topoisomerase I (Bos taurus); assay: Inhibition of calf thymus Top1 assessed as reduction in Top1-supercoiled pBR322 DNA covalent cleavage formation at 25 to 50 uM measured after 30 mins by electrophoretic mobility shift assay
MCF7 [8] = assay: Induction of DNA damage in human MCF7 cells assessed as increase in gammaH2AX foci formation at 0.5 uM measured after 12 hrs by immunofluorescence assay; format: functional, cell-based
MCF7 [9] = assay: Synergistic antiproliferative activity against human MCF7 cells assessed as combination index at 50 to 100 uM after 72 hrs in presence of TOP1 inhibitor topotecan by MTT assay; format: functional
MCF7 [10] = assay: Synergistic antiproliferative activity against human MCF7 cells assessed as combination index at 12.5 to 50 uM after 72 hrs in presence of TOP1 inhibitor topotecan by MTT assay; format: functional
MCF7 [11] = assay: Induction of DNA damage in human MCF7 cells assessed as increase in gammaH2AX foci formation up to 9 uM measured after 12 hrs by immunofluorescence assay; format: functional, cell-based

Tyrosyl-DNA phosphodiesterase 1, sequence (Q9NUW8 whole entry): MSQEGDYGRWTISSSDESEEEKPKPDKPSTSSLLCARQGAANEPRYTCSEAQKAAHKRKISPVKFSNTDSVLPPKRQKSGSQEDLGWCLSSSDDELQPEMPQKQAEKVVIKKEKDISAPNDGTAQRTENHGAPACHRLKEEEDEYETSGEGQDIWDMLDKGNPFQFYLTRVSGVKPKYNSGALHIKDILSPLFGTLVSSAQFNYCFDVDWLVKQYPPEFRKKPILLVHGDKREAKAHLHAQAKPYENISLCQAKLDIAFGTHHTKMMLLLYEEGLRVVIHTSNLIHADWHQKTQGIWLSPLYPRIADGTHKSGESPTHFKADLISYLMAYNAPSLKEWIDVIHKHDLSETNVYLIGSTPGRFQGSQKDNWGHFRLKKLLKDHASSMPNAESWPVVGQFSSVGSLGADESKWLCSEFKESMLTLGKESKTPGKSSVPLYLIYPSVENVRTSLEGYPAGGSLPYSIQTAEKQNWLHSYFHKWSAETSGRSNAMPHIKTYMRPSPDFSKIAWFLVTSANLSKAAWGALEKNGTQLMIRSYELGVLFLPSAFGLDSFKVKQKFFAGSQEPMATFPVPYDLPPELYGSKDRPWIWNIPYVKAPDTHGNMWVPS

SMILES | inhibition [1] | IC50 [2] | GI50 (MCF7 [3]) | GI50 (A549) | GI50 (HCT-116) | Activity [4] | Activity [5] | inhibition [6] | inhibition [7] | Activity (MCF7 [8]) | CI (MCF7 [9]) | CI (MCF7 [10]) | Activity (MCF7 [11])
C[C@H]1[C@H](C)CC[C@]2(C(=O)O)CC[C@]3(C)C(=CC[C@@H]4[C@@]5(C)C[C@@H](O)[C@H](O)C(C)(C)[C@@H]5CC[C@]43C)[C@H]12 [COROSOLIC ACID] | < 29% | > 100 µM | 62 µM | > 100 µM | > 100 µM |  |  |  |  |  |  |  | 
C[C@@H]1CC[C@@]23CC[C@]4(C)[C@@](C=C[C@@H]5[C@@]6(C)CC[C@H](O)C(C)(C)[C@@H]6CC[C@]54C)(OC2=O)C3[C@H]1C (some centres not stated) | 0% |  | > 100 µM | > 100 µM | > 100 µM |  |  |  |  |  |  |  | 
COc1cc(/C=C/C(=O)O[C@H]2[C@H](O)C[C@]3(C)[C@H]4CC=C5[C@@H]6CC(C)(C)CC[C@]6(C(=O)O)CC[C@@]5(C)[C@]4(C)CC[C@H]3C2(C)C)ccc1O | > 90% | > 100 µM | 67 µM | 59 µM | 22 µM | 9% | 10% | Dose-dependent effect | Active |  |  |  | 
CC(=O)O[C@H]1CC[C@]2(C)[C@H]3CC=C4[C@@H]5[C@@H](C)[C@H](C)CC[C@]5(C(=O)O)CC[C@@]4(C)[C@]3(C)CC[C@H]2C1(C)C [O-ACETYLURSOLIC ACID] | > 90% |  | 6.5 µM | 48 µM | 21 µM |  |  |  |  |  |  |  | 
CC1(C)CC[C@]2(C(=O)O)CC[C@]3(C)C(=CC[C@@H]4[C@@]5(C)CC[C@H](O)C(C)(C)[C@@H]5CC[C@]43C)[C@@H]2C1 [OLEANOLIC_ACID] | 0% |  | > 100 µM | > 100 µM | > 100 µM |  |  |  |  |  |  |  | 
CC[C@@]1(O)C(=O)OCc2c1cc1n(c2=O)Cc2cc3ccccc3nc2-1 |  |  |  |  |  | 16% | 18% |  |  | Active |  |  | 
CC(C)c1cc2c(cc1O)[C@@]1(C)CCC[C@](C)(CO)[C@@H]1CC2 | 30 to 59% | > 100 µM | 92 µM | 91 µM | 51 µM |  |  |  |  |  |  |  | 
C[C@@H]1CC[C@]2(C(=O)O)CC[C@]3(C)C(=CC[C@@H]4[C@@]5(C)C[C@@H](O)OCC(C)(C)[C@@H]5CC[C@]43C)[C@@H]2[C@]1(C)O | < 29% | > 100 µM | > 100 µM | > 100 µM | 23 µM |  |  |  |  |  |  |  | 
C=C1C(=O)O[C@H]2C3=CC[C@@H]4C(C)(C)[C@H](O)CC[C@@]4(C)[C@@H]3CC[C@@H]12 | 30 to 59% | > 100 µM | 53 µM | 35 µM | 35 µM |  |  |  |  |  |  |  | 
CC(C)c1ccc(O)c2c1CC[C@H]1[C@@](C)(C(=O)O)CCC[C@]21C | 30 to 59% | > 100 µM | 60 µM | 41 µM | 31 µM |  |  |  |  |  |  |  | 
CC1(C)CC[C@]2(C(=O)O)CC[C@]3(C)C(=CC[C@@H]4[C@@]5(C)C[C@H](O)[C@H](O)[C@@](C)(COC(C)(C)O)[C@@H]5CC[C@]43C)[C@@H]2C1 | 60 to 89% | > 100 µM | 11 µM | 37 µM | 55 µM |  |  |  |  |  |  |  | 
C=C1C(=O)[C@]23C[C@H]1CC[C@H]2[C@]1(C)CC[C@@H](O)C(C)(C)[C@H]1C[C@@H]3O | 60 to 89% | > 100 µM | 3.5 µM | 4.8 µM | 2.7 µM |  |  |  |  |  |  |  | 
CC1(C)CC[C@]2(C(=O)O)CC[C@]3(C)C(=CC[C@@H]4[C@@]5(C)C[C@@H](O)[C@@H](O)C(C)(C)[C@@H]5CC[C@]43C)[C@@H]2C1 | 30 to 59% | > 100 µM | > 100 µM | > 100 µM | 51 µM |  |  |  |  |  |  |  | 
CC(C)c1cc2c(cc1O)[C@]1(C)CCC[C@](C)(C(=O)O)[C@H]1CC2 | 30 to 59% | > 100 µM | 60 µM | 36 µM | 68 µM |  |  |  |  |  |  |  | 
C=C1C(=O)O[C@H]2C3=CC[C@@H]4[C@](C)(CO)CCC[C@@]4(C)[C@@H]3CC[C@@H]12 | 30 to 59% |  | 40 µM | 51 µM | 42 µM |  |  |  |  |  |  |  | 
C[C@@H]1CC[C@]2(C(=O)O)CC[C@]3(C)C(=CC[C@@H]4[C@@]5(C)C[C@@H](O)[C@@H](O)C(C)(C)[C@@H]5CC[C@]43C)[C@@H]2[C@]1(C)O [EUSCAPHIC ACID] | > 90% | > 100 µM | 41 µM | 43 µM | 22 µM |  |  |  |  |  |  |  | 
CC1(C)CC[C@]2(C(=O)O)CC[C@]3(C)C(=CC[C@@H]4[C@@]5(C)C[C@@H](O)[C@@H](O)[C@@](C)(CO)[C@@H]5CC[C@]43C)[C@@H]2C1 | 0% |  | > 100 µM | > 100 µM | > 100 µM |  |  |  |  |  |  |  | 
CC(=O)O[C@H]1CC[C@]2(C)[C@H]3CC=C4[C@H]5[C@](C(=O)O)(CC[C@@H](C)[C@@]5(C)O)CC[C@@]4(C)[C@]3(C)CC[C@H]2C1(C)C | 0% | > 100 µM | > 100 µM | > 100 µM | > 100 µM |  |  |  |  |  |  |  | 
O=C(/C=C/c1ccc(O)cc1)c1ccc(O)cc1O [ISOLIQUIRITIGENIN] | 30 to 59% | 55 µM | > 100 µM | 87 µM | 39 µM |  |  |  |  |  | <1 |  | 
CC(C)c1ccc2c(c1O)CC[C@@H]1[C@@](C)(CO)CCC[C@@]21C | 0% | > 100 µM | > 100 µM | > 100 µM | > 100 µM |  |  |  |  |  |  |  | 
C[C@H]1[C@H](C)CC[C@]2(CO)CC[C@]3(C)C(=CC[C@@H]4[C@@]5(C)CC[C@H](O)C(C)(C)[C@@H]5CC[C@]43C)[C@H]12 [UVAOL] | 30 to 59% | > 100 µM | 93 µM | 45 µM | 37 µM |  |  |  |  |  |  |  | 
COc1cc(O)ccc1/C=C/C(=O)c1ccc(O)cc1 [ECHINATIN] | 30 to 59% | 45 µM | 43 µM | 36 µM | 64 µM |  |  |  |  |  |  | <0.3 | 
CC1(C)CC[C@]2(C(=O)O)CC[C@]3(C)C(=CC[C@@H]4[C@@]5(C)C[C@@H](O)[C@H](O)[C@](C)(CO)[C@@H]5CC[C@]43C)[C@@H]2C1 | 60 to 89% |  | 14 µM | 22 µM | 29 µM |  |  |  |  |  |  |  | 
C=C1C(=O)O[C@H]2C3=CC[C@@H]4C(C)(C)C(=O)CC[C@@]4(C)[C@@H]3CC[C@@H]12 | 60 to 89% | > 100 µM | 15 µM | 51 µM | 31 µM |  |  |  |  |  |  |  | 
C[C@H]1[C@H](C)CC[C@]2(C(=O)O)CC[C@]3(C)C(=CC[C@@H]4[C@@]5(C)CCC(=O)C(C)(C)[C@@H]5CC[C@]43C)[C@H]12 [URSONIC ACID] | > 90% |  | 12 µM | 57 µM | 5.3 µM | 11% | 9% | Dose-dependent effect | Active |  |  |  | inactive
CO[C@@H]1C[C@]2(C)[C@H]3CC=C4[C@H]5[C@](C(=O)O)(CC[C@@H](C)[C@@]5(C)O)CC[C@@]4(C)[C@]3(C)CC[C@H]2C(C)(C)CO1 | 30 to 59% | > 100 µM | 31 µM | 63 µM | 37 µM |  |  |  |  |  |  |  | 
